Patent publication US9765065B2, “Therapeutic substituted cyclopentanes” (ALLERGAN, INC., priority 2007, dated 2017)
pEC50, pKi: −log10 of the molar value.

Legend:
EP2 [1] = target: T1, EP2 (Homo sapiens, UniProt P43116); assay: EP2 cAMP; assay type: cell-based
Excerpt: (§1) U.S. patent application Ser. No. 11/553,143, filed on Oct. 26, 2006, incorporated by reference herein in its entirety, describes the methods used to obtain the in vitro data in the table below.

hEP3A = target: T2, hEP3A (Homo sapiens, UniProt P43115); assay: Other receptors hEP3A; assay type: cell-based
T2 sequence (P43115 1-390): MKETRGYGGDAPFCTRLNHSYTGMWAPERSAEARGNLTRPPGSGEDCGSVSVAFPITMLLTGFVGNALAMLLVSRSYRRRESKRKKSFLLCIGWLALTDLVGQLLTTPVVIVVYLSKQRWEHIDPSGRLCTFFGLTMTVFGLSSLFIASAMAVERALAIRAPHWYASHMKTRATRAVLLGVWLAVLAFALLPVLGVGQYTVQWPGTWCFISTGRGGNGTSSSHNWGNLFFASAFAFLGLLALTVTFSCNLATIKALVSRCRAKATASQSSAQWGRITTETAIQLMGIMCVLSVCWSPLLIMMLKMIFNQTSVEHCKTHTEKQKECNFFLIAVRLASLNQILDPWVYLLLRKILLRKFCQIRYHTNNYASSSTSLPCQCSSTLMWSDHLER
Excerpt: as §1

EP2 [2] = target: T1, EP2; assay: EP2 flipr; assay type: cell-based
Excerpt: as §1

EP2 [3] = target: T1, EP2; assay: EP2 binding Ki
Excerpt: as §1

EP4 [4] = target: T3, EP4 (Homo sapiens, UniProt P35408); assay: EP4 flipr; assay type: cell-based
T3 sequence (P35408 whole entry): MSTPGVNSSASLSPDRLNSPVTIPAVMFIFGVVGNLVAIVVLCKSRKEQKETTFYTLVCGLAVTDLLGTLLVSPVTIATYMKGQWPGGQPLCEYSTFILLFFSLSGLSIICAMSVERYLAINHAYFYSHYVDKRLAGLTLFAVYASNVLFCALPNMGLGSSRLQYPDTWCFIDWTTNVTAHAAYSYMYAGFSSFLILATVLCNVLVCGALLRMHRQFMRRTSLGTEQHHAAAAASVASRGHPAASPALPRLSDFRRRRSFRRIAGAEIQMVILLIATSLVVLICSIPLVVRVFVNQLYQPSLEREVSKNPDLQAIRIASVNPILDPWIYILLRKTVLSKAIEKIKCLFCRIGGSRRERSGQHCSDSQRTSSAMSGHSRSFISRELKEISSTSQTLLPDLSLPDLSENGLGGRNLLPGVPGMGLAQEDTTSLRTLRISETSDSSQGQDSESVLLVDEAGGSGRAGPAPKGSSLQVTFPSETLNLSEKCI
Excerpt: as §1

EP4 [5] = target: T3, EP4; assay: EP4 binding Ki
Excerpt: as §1

T1 sequence (P43116 whole entry): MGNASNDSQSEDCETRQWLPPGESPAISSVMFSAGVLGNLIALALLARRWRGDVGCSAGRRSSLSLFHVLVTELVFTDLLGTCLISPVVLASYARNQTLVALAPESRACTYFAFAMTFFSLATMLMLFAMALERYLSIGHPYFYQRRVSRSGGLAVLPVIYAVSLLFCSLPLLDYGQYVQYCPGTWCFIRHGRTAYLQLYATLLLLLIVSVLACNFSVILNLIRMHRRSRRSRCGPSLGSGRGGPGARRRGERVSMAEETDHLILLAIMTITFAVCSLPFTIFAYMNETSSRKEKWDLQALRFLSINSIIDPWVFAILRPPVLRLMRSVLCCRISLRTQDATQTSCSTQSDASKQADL

SMILES | pEC50 (EP2 [1]) | EC50 (hEP3A) | pEC50 (EP2 [2]) | pKi (EP2 [3]) | pEC50 (EP4 [4]) | pKi (EP4 [5])
O=C(O)c1ccc(CCC[C@H]2C(C(F)(F)F)C[C@@H](O)[C@@H]2C#Cc2ccccc2)s1 (single isomer, unassigned) [Example 23] | 8.52 | 7100 nM | 7.10 | 7.52 |  | 
O=C(O)c1ccc(CCC[C@@H]2[C@@H](C#Cc3ccccc3)[C@H](O)C[C@H]2C(F)(F)F)s1 (single isomer, unassigned) [Example 24] | 8.40 |  | 6.97 | 7.39 |  | 
O=C(O)c1ccc(CCC[C@@H]2[C@@H](/C=C/c3cncc(Cl)c3)[C@H](O)C[C@H]2Cl)s1 [Example 3, 5-(3-((1R,2R,3R,5R)-5-chloro-2-((E)-2-(5-chloropyridin-3-yl)vinyl)-3-hydroxycyclopentyl)propyl)-thiophene-2-carboxylic acid] | 8.89 |  | 7.00 | 8.00 | 4.80 | 5.46
O=C(O)c1ccc(CCC[C@@H]2[C@@H](/C=C/c3cc(Cl)nc(Cl)c3)[C@H](O)C[C@H]2Cl)s1 [Example 4, 5-(3-((1R,2R,3R,5R)-5-chloro-2-((E)-2-(2,6-dichloropyridin-4-yl)vinyl)-3-hydroxycyclopentyl)propyl)-thiophene-2-carboxylic acid] | 10.05 |  | 7.36 | 8.64 | 4.80 | 6.79
Cc1cc(C)cc(/C=C/[C@@H]2[C@@H](CCCc3ccc(C(=O)O)s3)[C@H](Cl)C[C@H]2O)c1 [Example 8, 5-(3-((1R,2R,3R,5R)-5-chloro-2-(3,5-dimethylstyryl)-3-hydroxycyclopentyl)propyl)thiophene-2-carboxylic acid] | 8.85 |  | 6.48 | 8.10 | 5.00 | 7.07
C=CCCc1cccc(/C=C/[C@@H]2[C@@H](CCCc3ccc(C(=O)O)s3)[C@H](Cl)C[C@H]2O)c1 [Example 9, 5-(3-((1R,2R,3R,5R)-2-(3-(but-3-enyl)styryl)-5-chloro-3-hydroxycyclopentyl)propyl)thiophene-2-carboxylic acid] | 10.52 | 5780 nM | 7.14 | 9.15 | 4.76 | 6.54
C/C=C/c1cc(Cl)cc(/C=C/[C@@H]2[C@@H](CCCc3ccc(C(=O)O)s3)[C@H](Cl)C[C@H]2O)c1 [Example 10, 5-(3-((1R,2R,3R,5R)-5-chloro-2-((E)-3-chloro-5-((E)-prop-1-enyl)styryl)-3-hydroxycyclopentyl)propyl)thiophene-2-carboxylic acid] | 10.00 |  | 5.78 | 8.85 | < 5.00 | 7.05
C/C=C/c1cc(Cl)cc(/C=C\[C@@H]2[C@@H](CCCc3ccc(C(=O)O)s3)[C@H](Cl)C[C@H]2O)c1 [Example 11, 5-(3-((1R,2R,3R,5R)-5-chloro-2-((Z)-3-chloro-5-((E)-prop-1-enyl)styryl)-3-hydroxycyclopentyl)propyl)thiophene-2-carboxylic acid] | 7.92 |  | 5.66 | 7.62 | 5.19 | 6.62
CCCc1cc(/C=C/[C@@H]2[C@@H](CCCc3ccc(C(=O)O)s3)[C@H](Cl)C[C@H]2O)ccn1 [Example 13, 5-(3-((1R,2R,3R,5R)-5-chloro-3-hydroxy-2-((E)-2-(2-propylpyridin-4-yl)vinyl)cyclopentyl)propyl)thiophene-2-113 carboxylic acid] | 9.40 |  | < 5.00 | 8.70 | < 5.00 | 6.71
O=C(O)c1ccc(CCC[C@@H]2C(=O)C[C@@H](O)[C@@H]2C#Cc2ccccc2)s1 [Example 18, 5-(3-((1S,2S,3R)-3-hydroxy-5-oxo-2-(phenylethynyl)cyclopentyl)propyl)thiophene-2-carboxylic acid] | 9.22 |  | 7.66 | 7.52 | 5.49 | 5.75
O=C(O)c1ccc(CCC[C@@H]2[C@@H](C#Cc3cc(Cl)cc(Cl)c3)[C@H](O)C[C@H]2Cl)s1 [Example 25, 5-(3-((1R,2S,3R,5R)-5-chloro-2-((3,5-dichlorophenyl)ethynyl)-3-hydroxycyclopentyl)propyl)thiophene-2-carboxylic acid] | 10.05 |  | 6.88 | > 10.10 | 5.72 | 6.33
CCc1cccc(C#C[C@@H]2[C@@H](CCCc3ccc(C(=O)O)s3)[C@H](Cl)C[C@H]2O)c1 [Example 26, 5-(3-((1R,2S,3R,5R)-5-chloro-2-((3-ethylphenyl)ethynyl)-3-hydroxycyclopentyl)propyl)thiophene-2-carboxylic acid] | 10.10 |  | 7.25 | 9.52 | 6.21 | 6.50
C=CCCc1cccc(C#C[C@@H]2[C@@H](CCCc3ccc(C(=O)O)s3)[C@H](Cl)C[C@H]2O)c1 [Example 27, 5-(3-((1R,2S,3R,5R)-2-((3-(but-3-enyl)phenyl)ethynyl)-5-chloro-3-hydroxycyclopentyl)propyl)thiophene-2-carboxylic acid] | 10.52 |  | 7.72 | 9.00 | 4.96 | 6.36
O=C(O)c1ccc(CCC[C@@H]2[C@@H](C#Cc3ccsc3)[C@H](O)C[C@H]2Cl)s1 [Example 29, 5-(3-((1R,2S,3R,5R)-5-chloro-3-hydroxy-2-(thiophen-3-ylethynyl)cyclopentyl)propyl)thiophene-2-carboxylic acid] | 8.48 |  |  | 7.19 | 5.23 | 5.73
O=C(O)c1ccc(CCC[C@@H]2[C@@H](C#Cc3ccccn3)[C@H](O)C[C@H]2Cl)s1 [Example 30, 5-(3-((1R,2S,3R,5R)-5-chloro-3-hydroxy-2-(pyridin-2-ylethynyl)cyclopentyl)propyl)thiophene-2-carboxylic acid] | 9.70 |  | 8.52 | 7.96 | < 5.00 | 5.67
O=C(O)c1ccc(CCC[C@@H]2[C@@H](C#Cc3cccnc3)[C@H](O)C[C@H]2Cl)s1 [Example 31, 5-(3-((1R,2S,3R,5R)-5-chloro-3-hydroxy-2-(pyridin-3-ylethynyl)cyclopentyl)propyl)thiophene-2-carboxylic acid] | 9.52 |  | 8.70 | 8.40 | 5.38 | 5.84
O=C(O)c1ccc(CCC[C@@H]2[C@@H](C#Cc3ccncc3)[C@H](O)C[C@H]2Cl)s1 [Example 32, 5-(3-((1R,2S,3R,5R)-5-chloro-3-hydroxy-2-(pyridin-4-ylethynyl)cyclopentyl)propyl)thiophene-2-carboxylic acid] | 8.15 |  | 6.51 | 7.10 | < 5.00 | 5.06
O=C(O)c1ccc(CCC[C@@H]2[C@@H](C#Cc3cccc(CCCO)c3)[C@H](O)C[C@H]2Cl)s1 [Example 33, 5-(3-((1R,2S,3R,5R)-5-chloro-3-hydroxy-2-((3-(3-hydroxypropyl)phenyl)ethynyl)cyclopentyl)propyl)thiophene-2-carboxylic acid] | 9.66 |  |  | 8.70 | 5.05 | 5.82
